# From patent US10238713B2, “Cyclic tetrapeptides and therapeutic applications thereof” (LODZ UNIVERSITY OF TECHNOLOGY, priority 2010, dated 2019)
# Non-standard residues stand in square brackets, D forms with d. Residues, ends and D or L forms follow the SMILES beside them. Oic = O=C(O)[C@@H]1C[C@@H]2CCCC[C@@H]2N1; Phe(4-Cl) = N[C@@H](Cc1ccc(Cl)cc1)C(=O)O; β3hY = N[C@H](CC(=O)O)Cc1ccc(O)cc1; Hyp = O=C(O)[C@@H]1C[C@@H](O)CN1; 3Pal = N[C@@H](Cc1cccnc1)C(=O)O; Tic = O=C(O)[C@@H]1Cc2ccccc2CN1; β3hF = N[C@H](CC(=O)O)Cc1ccccc1
# System: human PBMC
# Assay: Toxicity test: PBMC survival in 24 h culture (MTT)
# Conditions: 10 μg/ml, ANOVA, FIGS. 8A-8F (4B8M repeated per figure)
# Method: (§2) PBMC were isolated by centrifugation on Ficoll-uropoline gradient (density 1.077 g/ml) (Lymphoprep; PAA Laboratories), at 800×g for 20 min at 4° C. The interphase cells, consisting of lymphocytes (20%) and monocytes (80%) were then washed three times with Hanks' medium and re-suspended in the culture medium at density of 2×10^6 cells/ml.
# Appropriate dilutions of DMSO in RPMI 1640 medium were used as controls. Cell survival was determined by the MTT colorimetric method (Hansen et al., J. Immunol. Methods, 1989, pp. 203-210). The data are presented as a mean OD value from quadriplicate wells ±standard error (SE). The cultures “Control (−)” contained only cells in the culture medium.
# The assay was performed per Hansen et al., J. Immunol. […] Briefly, 25 μl of MTT (5 mg/ml) stock solution was added per well at the end of cell incubation and the plates were incubated for 3 h in a cell culture incubator. Then, 100 μl of the extraction buffer (20% SDS with 50% DMF, pH 4.7) was added. After additional overnight incubation, the optical density was measured at 550 nm (Dynatech 5000).
row,SMILES,"PBMC survival, P vs DMSO at appropriate dilution"
1,O=C1C[C@H](Cc2ccccc2)NC(=O)[C@@H]2CCCN2C(=O)[C@@H]2C[C@@H]3CCCC[C@@H]3N2C(=O)[C@H](Cc2ccccc2)N1 [I-AD] (cyclo(F[Oic]P[β3hF])),1.0000
2,O=C1C[C@H](Cc2ccccc2)NC(=O)[C@@H]2CCCN2C(=O)[C@@H]2C[C@@H](O)CN2C(=O)[C@H](Cc2ccccc2)N1 [I-R] (cyclo(F[Hyp]P[β3hF])),0.6250
3,O=C1C[C@H](Cc2ccccc2)NC(=O)[C@@H]2CCCN2C(=O)[C@@H]2CCCN2C(=O)[C@H](Cc2cccnc2)N1 [I-AC] (cyclo([3Pal]PP[β3hF])),0.8178
4,O=C1N[C@@H](Cc2ccccc2)CC(=O)N2Cc3ccccc3C[C@H]2C(=O)N2CCC[C@H]2C(=O)N2CCC[C@@H]12 [I-AA] (cyclo(PP[β3hF][Tic])),0.9997
5,O=C1C[C@H](Cc2ccccc2)NC(=O)[C@@H]2CCCN2C(=O)[C@@H]2CCCN2C(=O)[C@H](Cc2ccc(Cl)cc2)N1 [I-V] (cyclo(PP[β3hF][Phe(4-Cl)])),0.9999
6,O=C1C[C@H](Cc2ccc(O)cc2)NC(=O)[C@@H]2CCCN2C(=O)[C@@H]2CCCN2C(=O)[C@H](Cc2ccccc2)N1 [I-AG] (cyclo(FPP[β3hY])),0.0001

# Same assay, conditions: 100 μg/ml, ANOVA, FIGS. 8A-8F (4B8M repeated per figure)
row,SMILES,"PBMC survival, P vs DMSO at appropriate dilution"
1,O=C1C[C@H](Cc2ccccc2)NC(=O)[C@@H]2CCCN2C(=O)[C@@H]2C[C@@H]3CCCC[C@@H]3N2C(=O)[C@H](Cc2ccccc2)N1 [I-AD] (cyclo(F[Oic]P[β3hF])),0.9531
2,O=C1C[C@H](Cc2ccccc2)NC(=O)[C@@H]2CCCN2C(=O)[C@@H]2C[C@@H](O)CN2C(=O)[C@H](Cc2ccccc2)N1 [I-R] (cyclo(F[Hyp]P[β3hF])),0.0019
3,O=C1C[C@H](Cc2ccccc2)NC(=O)[C@@H]2CCCN2C(=O)[C@@H]2CCCN2C(=O)[C@H](Cc2cccnc2)N1 [I-AC] (cyclo([3Pal]PP[β3hF])),0.9882
4,O=C1N[C@@H](Cc2ccccc2)CC(=O)N2Cc3ccccc3C[C@H]2C(=O)N2CCC[C@H]2C(=O)N2CCC[C@@H]12 [I-AA] (cyclo(PP[β3hF][Tic])),0.9978
5,O=C1C[C@H](Cc2ccccc2)NC(=O)[C@@H]2CCCN2C(=O)[C@@H]2CCCN2C(=O)[C@H](Cc2ccc(Cl)cc2)N1 [I-V] (cyclo(PP[β3hF][Phe(4-Cl)])),0.1122
6,O=C1C[C@H](Cc2ccc(O)cc2)NC(=O)[C@@H]2CCCN2C(=O)[C@@H]2CCCN2C(=O)[C@H](Cc2ccccc2)N1 [I-AG] (cyclo(FPP[β3hY])),0.0001

# System: mice, carrageenan air pouch
# Assay: Carrageenan air-pouch test (exudate cell number)
# Type: in vivo, mouse
# Conditions: peptides 100 μg i.p. one hour before carrageenan, 24 h; FIGS. 18A-18B
# Method: (§1) In this and the air-pouch test, 1.5 mg peptide was dissolved in 300 μl of DMSO, then in 0.9% NaCl to achieve the desired dose (250 μg/0.2 ml or 100 μg/0.2 ml). Carrageenan (Sigma) was dissolved in 0.9% aqueous NaCl (overnight). 50 μl of 2% carrageenan solution was injected intradermally into hind foot pads. The peptides were given in a single 250 μg dose (0.2 ml) per mouse intraperitoneally (i.p.), 30 min before carrageenan administration. Dexamethasone (DEX) (Dexaven, Polfa, Poland), a reference drug, was given i.p. in dose 25 μg per mouse. Control mice were administered i.p. appropriately diluted solvent (DMSO in aqueous NaCl) instead of peptides. The foot pads of “background” (BG) mice were injected with 50 μl of 0.9% aqueous NaCl. Foot pad edema was measured with a spring caliper, 2 h, 3 h and 4 h after administration of carrageenan. The results are presented in FIGS. 17A, 17B and 17C as mean values of the antigen-specific increase of the foot pad thickness measured in 5 mice in each experimental group and expressed in mm ±SE (only results from measurements 4 h following administration of carrageenan are presented in figures). Statistics: FIG. 17A: Control vs: DEX P=0.0001; 4B8M P=0.0001; P25 NS (P=1.0000); P28 NS (P=1.0000); P31 NS (P=0.0528); P35 P=0.0008 (ANOVA of Kruskal-Wallis); FIG. 17B: Statistics: Control vs: P22 NS (P=1.0000); P26 NS (P=1.0000); P27 P=0.0050; P30 P=0.0004; P33-b NS (P=1.0000); SP00-b P=0.0001; P00S-b NS (P=1.0000) (ANOVA of Kruskal-Wallis); FIG. 17C: Statistics: Control vs: P21 P=0.0147; P23-2 P=0.0083; P24 P=0.0001; P29 NS (P=0.9999); P32 P=0.0001; P33 NS (P=0.6806); P34 NS (P=0.1920) (ANOVA).
# Air pouches were formed by subdermal injection into the dorsal region (in a halothane anesthesia) of 5 cm^3 of air (needle 23G x 11/4, 5 ml syringe). On day 3 the air pouches were given an additional 2 ml of air and an inflammatory process was elicited by an intra-pouch injection of 1% of carrageenan in 0.5 ml of 0.9% aqueous NaCl. The peptides were given i.p. at a dose of 100 μg one hour before carrageenan injection into the air pouch. The mice from the “background” (BG) group were given 0.9% aqueous NaCl i.p. and 0.9% aqueous NaCl into the air pouches. Control mice were given appropriately diluted DMSO i.p. and carrageenan into the air pouches. 24 h after carrageenan injection, the mice were sacrificed by cervical dislocation, the air pouches were supplemented with 1 ml of 0.9% aqueous NaCl and the exudates from the air pouches were aspirated using a syringe. The exudates were diluted with 0.9% aqueous NaCl and the cells were counted in a Bürker hemocytometer. Data are presented in FIGS. 18A and 18B as the mean values from 10 mice/group (cell number×10^6 per mouse) ±SE. Then the cells were centrifuged and 0.1 ml of the supernatant was saved for TNF-α determination (see Determination of TNF-α activity, above). The cell pellets were used to perform smears on microscopic glasses, which were stained with Giemsa and May-Grünwald reagents for evaluation of mast cell degranulation. Cell analysis was performed by a histologist using a light microscope and 1000× magnification. The content of intact and degranulated mast cells is given in percentage (mean values from 10 mice/group) ±SE. Statistics: FIG. 18A: BG vs Control P=0.0000; Control vs: DEX P=0.0034; 4B8M P=0.0005; P22 NS (P=0.7275); P26 P=0.0032; P27 NS (P=0.0659); P35 NS (P=1.0000) (ANOVA of Kruskal-Wallis); FIG. 18B: Control vs: P21 NS (P=0.322); P23-2 P=0.0020; P24 P=0.0001; P25 P=0.0418; P28 NS (P=0.3502); P29 NS (P=0.0582); P30 P=0.0006; P31 P=0.0078; P32 P=0.0340; P33 NS (P=0.9993); P34 NS (p=0.0566) (ANOVA).
row,SMILES,"air pouch exudate cell number, P vs Control"
1,O=C1C[C@H](Cc2ccccc2)NC(=O)[C@@H]2CCCN2C(=O)[C@@H]2C[C@@H]3CCCC[C@@H]3N2C(=O)[C@H](Cc2ccccc2)N1 [I-AD] (cyclo(F[Oic]P[β3hF])),0.0078
2,O=C1C[C@H](Cc2ccccc2)NC(=O)[C@@H]2CCCN2C(=O)[C@@H]2C[C@@H](O)CN2C(=O)[C@H](Cc2ccccc2)N1 [I-R] (cyclo(F[Hyp]P[β3hF])),0.322
3,O=C1C[C@H](Cc2ccccc2)NC(=O)[C@@H]2CCCN2C(=O)[C@@H]2CCCN2C(=O)[C@H](Cc2cccnc2)N1 [I-AC] (cyclo([3Pal]PP[β3hF])),0.0006
4,O=C1N[C@@H](Cc2ccccc2)CC(=O)N2Cc3ccccc3C[C@H]2C(=O)N2CCC[C@H]2C(=O)N2CCC[C@@H]12 [I-AA] (cyclo(PP[β3hF][Tic])),0.3502
5,O=C1C[C@H](Cc2ccccc2)NC(=O)[C@@H]2CCCN2C(=O)[C@@H]2CCCN2C(=O)[C@H](Cc2ccc(Cl)cc2)N1 [I-V] (cyclo(PP[β3hF][Phe(4-Cl)])),0.0001
6,O=C1C[C@H](Cc2ccc(O)cc2)NC(=O)[C@@H]2CCCN2C(=O)[C@@H]2CCCN2C(=O)[C@H](Cc2ccccc2)N1 [I-AG] (cyclo(FPP[β3hY])),0.9993

# System: PHA-induced proliferation of human peripheral blood mononuclear cells (PBMC)
# Assay: Proliferative response of PBMC to PHA (MTT)
# Type: cell-based
# Conditions: 10 μg/ml, four-day incubation; FIGS. 9A-9F
# Method: as §2
# The isolated PBMC were distributed into 96-well flat-bottom plates in 100 μl aliquots (2×10^5 cells/well). PHA was used at concentration of 5 μg/ml. The compounds were tested at concentrations of 1, 10 and 100 μg/ml. DMSO at appropriate dilutions served as control. After a four-day incubation in a cell culture incubator, the proliferative response of cells was determined by the colorimetric MTT method (Hansen et al., J. Immunol. Methods, 1989, pp. 203-210). The data are presented as a mean OD value from quadriplicate wells ±standard error (SE). The cultures “Control (−)” contained no mitogen (PHA). The cultures “Control (PHA)” contained PHA but not cyclic tetrapeptides.
# Briefly, 25 μl of MTT (5 mg/ml) stock solution was added per well at the end of cell incubation and the plates were incubated for 3 h in a cell culture incubator. Then, 100 μl of the extraction buffer (20% SDS with 50% DMF, pH 4.7) was added. After additional overnight incubation, the optical density was measured at 550 nm (Dynatech 5000).
row,SMILES,"PHA-induced PBMC proliferation, P vs DMSO at appropriate dilution"
1,O=C1C[C@H](Cc2ccccc2)NC(=O)[C@@H]2CCCN2C(=O)[C@@H]2C[C@@H](O)CN2C(=O)[C@H](Cc2ccccc2)N1 [I-R] (cyclo(F[Hyp]P[β3hF])),0.7122
2,O=C1C[C@H](Cc2ccccc2)NC(=O)[C@@H]2CCCN2C(=O)[C@@H]2CCCN2C(=O)[C@H](Cc2cccnc2)N1 [I-AC] (cyclo([3Pal]PP[β3hF])),0.9850
3,O=C1C[C@H](Cc2ccccc2)NC(=O)[C@@H]2CCCN2C(=O)[C@@H]2CCCN2C(=O)[C@H](Cc2ccc(Cl)cc2)N1 [I-V] (cyclo(PP[β3hF][Phe(4-Cl)])),1.0000
4,O=C1C[C@H](Cc2ccc(O)cc2)NC(=O)[C@@H]2CCCN2C(=O)[C@@H]2CCCN2C(=O)[C@H](Cc2ccccc2)N1 [I-AG] (cyclo(FPP[β3hY])),1.0000

# Same assay, conditions: 100 μg/ml, four-day incubation; FIGS. 9A-9F
row,SMILES,"PHA-induced PBMC proliferation, P vs DMSO at appropriate dilution"
1,O=C1C[C@H](Cc2ccccc2)NC(=O)[C@@H]2CCCN2C(=O)[C@@H]2C[C@@H]3CCCC[C@@H]3N2C(=O)[C@H](Cc2ccccc2)N1 [I-AD] (cyclo(F[Oic]P[β3hF])),1.0000
2,O=C1C[C@H](Cc2ccccc2)NC(=O)[C@@H]2CCCN2C(=O)[C@@H]2C[C@@H](O)CN2C(=O)[C@H](Cc2ccccc2)N1 [I-R] (cyclo(F[Hyp]P[β3hF])),0.0436
3,O=C1C[C@H](Cc2ccccc2)NC(=O)[C@@H]2CCCN2C(=O)[C@@H]2CCCN2C(=O)[C@H](Cc2cccnc2)N1 [I-AC] (cyclo([3Pal]PP[β3hF])),0.9871
4,O=C1N[C@@H](Cc2ccccc2)CC(=O)N2Cc3ccccc3C[C@H]2C(=O)N2CCC[C@H]2C(=O)N2CCC[C@@H]12 [I-AA] (cyclo(PP[β3hF][Tic])),1.0000
5,O=C1C[C@H](Cc2ccccc2)NC(=O)[C@@H]2CCCN2C(=O)[C@@H]2CCCN2C(=O)[C@H](Cc2ccc(Cl)cc2)N1 [I-V] (cyclo(PP[β3hF][Phe(4-Cl)])),0.4681
6,O=C1C[C@H](Cc2ccc(O)cc2)NC(=O)[C@@H]2CCCN2C(=O)[C@@H]2CCCN2C(=O)[C@H](Cc2ccccc2)N1 [I-AG] (cyclo(FPP[β3hY])),1.0000

# System: mice, carrageenan-induced foot pad edema
# Assay: Carrageenan-induced foot-pad edema test
# Type: in vivo, mouse
# Conditions: 4 h after carrageenan; peptides 250 μg i.p., DEX 25 μg i.p., 30 min before; FIGS. 17A-17C
# Method: as §1
row,SMILES,"foot pad edema (increase of foot pad thickness), P vs Control"
1,O=C1C[C@H](Cc2ccccc2)NC(=O)[C@@H]2CCCN2C(=O)[C@@H]2C[C@@H]3CCCC[C@@H]3N2C(=O)[C@H](Cc2ccccc2)N1 [I-AD] (cyclo(F[Oic]P[β3hF])),0.0528
2,O=C1C[C@H](Cc2ccccc2)NC(=O)[C@@H]2CCCN2C(=O)[C@@H]2C[C@@H](O)CN2C(=O)[C@H](Cc2ccccc2)N1 [I-R] (cyclo(F[Hyp]P[β3hF])),0.0147
3,O=C1C[C@H](Cc2ccccc2)NC(=O)[C@@H]2CCCN2C(=O)[C@@H]2CCCN2C(=O)[C@H](Cc2cccnc2)N1 [I-AC] (cyclo([3Pal]PP[β3hF])),0.0004
4,O=C1N[C@@H](Cc2ccccc2)CC(=O)N2Cc3ccccc3C[C@H]2C(=O)N2CCC[C@H]2C(=O)N2CCC[C@@H]12 [I-AA] (cyclo(PP[β3hF][Tic])),1.0000
5,O=C1C[C@H](Cc2ccccc2)NC(=O)[C@@H]2CCCN2C(=O)[C@@H]2CCCN2C(=O)[C@H](Cc2ccc(Cl)cc2)N1 [I-V] (cyclo(PP[β3hF][Phe(4-Cl)])),0.0001
6,O=C1C[C@H](Cc2ccc(O)cc2)NC(=O)[C@@H]2CCCN2C(=O)[C@@H]2CCCN2C(=O)[C@H](Cc2ccccc2)N1 [I-AG] (cyclo(FPP[β3hY])),0.6806
